Laboratory results from article PMC10379010, “Short Peptides of Innate Immunity Protein Tag7 (PGLYRP1) Selectively Induce Inhibition or Activation of Tumor Cell Death via TNF Receptor” (International Journal of Molecular Sciences, 2023).
Where a SMILES comes first, the peptide text is derived from it.

Experiments:
Hsp70 = target: T1, Hsp70 (Homo sapiens, UniProt P0DMV8); experiment: Microscale thermophoresis, binding to labeled Hsp70; details: labeled Hsp70 200 nM, 16 ligand concentrations, 20 min, room temperature, triplicate, average ± SD, read-out: Apparent dissociation constant (Kd) with Hsp70
T1 construct: made in house
T1 sequence (P0DMV8 whole entry): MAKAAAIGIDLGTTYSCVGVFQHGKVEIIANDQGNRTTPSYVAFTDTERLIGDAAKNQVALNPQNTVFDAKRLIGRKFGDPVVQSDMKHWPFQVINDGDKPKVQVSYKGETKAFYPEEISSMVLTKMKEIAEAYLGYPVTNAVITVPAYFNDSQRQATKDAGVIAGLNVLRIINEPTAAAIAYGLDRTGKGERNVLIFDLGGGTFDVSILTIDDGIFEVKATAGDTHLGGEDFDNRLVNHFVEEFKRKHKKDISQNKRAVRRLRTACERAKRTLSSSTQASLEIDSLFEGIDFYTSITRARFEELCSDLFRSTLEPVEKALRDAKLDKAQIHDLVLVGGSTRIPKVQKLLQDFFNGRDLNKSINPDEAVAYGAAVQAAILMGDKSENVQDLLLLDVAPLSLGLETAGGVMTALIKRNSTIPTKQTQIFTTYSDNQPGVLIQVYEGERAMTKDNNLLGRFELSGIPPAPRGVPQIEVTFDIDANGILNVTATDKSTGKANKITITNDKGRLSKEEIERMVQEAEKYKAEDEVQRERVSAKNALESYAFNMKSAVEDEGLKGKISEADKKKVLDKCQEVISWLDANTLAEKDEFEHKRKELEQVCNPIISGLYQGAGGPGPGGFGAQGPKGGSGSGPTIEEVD
Source text: (§1) Protein–protein interactions of sTNFR1 and Hsp70 with the peptides 17.1, 17.1A and 17.1B and the Tag7 protein were quantified using microscale thermophoresis (MST). This biophysical method is based on the movement of molecules in a temperature gradient, which strongly depends on the charge, the hydration shell and the size of the moving molecules. At least one of these qualities usually changes during the formation of the complex. Therefore, thermophoresis provides a sensitive and reliable method for analyzing and quantifying protein–protein interactions. […] The obtained constants indicate a highly specific interaction of Tag7, 17.1 and 17.1A with sTNFR1. Similarly, clear changes in the thermophoretic signal were observed when Tag7, 17.1 and 17.1B were added to the labeled Hsp70. […]
(§2) The purified sTNFR1 and Hsp70 were fluorescently labeled using the Alexa Fluor 633 or Alexa Fluor 488 staining kit (Eugene, OR, USA) in accordance with the manufacturer’s instructions. sTNFR1 and Hsp70 (200 nM) were incubated for 20 min with each compound in the dark at room temperature at 16 different concentrations obtained by sequential dilution, starting from the highest soluble concentration. The samples were loaded into glass capillaries (Monolith NT Capillaries) and analyzed by thermophoresis using Nano-Temperature Monolith NT 115 apparatus (IR laser power 10%). […]

[1] = tested on: K562 cells (killed by cytotoxic CD4+-T lymphocytes); experiment: Inhibition of the cytotoxic activity of CD4+-T lymphocytes; type: cell-based; details: K562 cells preincubated with peptide 30 min (1 nM), then cytotoxic lymphocytes, ratio 1:20, 24 h; Cytotox 96; n = 5
Protocol: Figure 5 (a) The peptides were biotinylated and added to cells of the K562 line, followed by incubation for 1 h. Next, the peptides were cross-linked with Hsp70 on the cell surface with BS^3 reagent (Sigma-Aldrich, St. Louis, MO, USA). After stopping the reaction, the cells were lysed in RIP-A (Sigma-Aldrich, St. Louis, MO, USA) buffer in the presence of protease inhibitors. The lysate was purified by magnetic separation on M280 Streptavidin Beads. The obtained fractions containing 17.1A-Hsp70 and 17.1B-Hsp70 were analyzed using 12% SDS-PAGE electrophoresis and Western blot. Complexes were detected using primary antibodies abHsp70 poly-AT and secondary antibodies anti-rabbit peroxidase-linked (ECL). (b) Tumor cells of the K562 line were preincubated with peptides 17.1, 17.1A and 17.1B for 30 min., and then cytotoxic lymphocytes were added and cytotoxic activity was determined (24 h incubation), n = 5 for each point, (* p-value < 0.05). […]
For the cytotoxicity tests, target cells were cultured in 96-well plates (6 × 10^4 cells per well) and mixed with lymphocytes at a ratio of 1:20. The cytotoxicity was measured after 24 h of incubation. […] The cytotoxic activity of the lymphocytes was determined using the Cytotox 96 analysis kit (Promega, Madison, WI, USA) in accordance with the manufacturer’s protocol.

[2] = tested on: L929 cells (TNFR1-induced cytotoxicity); experiment: Inhibition of TNFR1-dependent cytotoxicity, L929 cells; type: cell-based, mouse; details: 24 h, peptide added 30 min before TNF (1 nM), only at peptide concentration of 100 nM, n = 5
Protocol: Figure 2 Cells (HL-60 (a–d) or L-929 (e,f)) were preincubated with peptide 17.1A (a,b) or 17.1B (c–f) for 30 min, and then a cytotoxic agent (TNF, Tag7-Hsp70 complex or autoantibodies) was added and cytotoxic activity was then determined after 3 (a,c,e) or 24 h (b,d,f) of cell incubation. n = 5 for each group). (* p-value < 0.05).
(L929 cells, 24 h of incubation, peptides were added 30 min before incubation with TNF (1 nM)) n = 5 for each point.
For the cytotoxicity tests, target cells were cultured in 96-well plates (6 × 10^4 cells per well) and mixed with lymphocytes at a ratio of 1:20. The cytotoxicity was measured after 24 h of incubation. The inhibition test was performed with peptides 17.1, 17.1A and 17.1B at a concentration of 1 nM. The cytotoxic activity of the lymphocytes was determined using the Cytotox 96 analysis kit (Promega, Madison, WI, USA) in accordance with the manufacturer’s protocol.

sTNFR1 = target: T2, sTNFR1 (Homo sapiens, UniProt P19438); experiment: Microscale thermophoresis, binding to labeled sTNFR1; details: labeled sTNFR1 200 nM, 16 ligand concentrations, 20 min, room temperature, triplicate, average ± SD, read-out: Apparent dissociation constant (Kd) with sTNFR1
T2 construct: the soluble extracellular domain of its receptor (sTNFR1); made in house
T2 sequence (P19438 30-211 limits assumed): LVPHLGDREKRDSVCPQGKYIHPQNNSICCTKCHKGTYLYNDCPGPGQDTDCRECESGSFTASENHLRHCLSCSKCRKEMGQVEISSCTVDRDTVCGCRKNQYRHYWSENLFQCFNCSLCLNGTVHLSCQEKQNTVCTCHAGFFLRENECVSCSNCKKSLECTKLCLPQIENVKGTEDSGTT
Source text: as §1, §2

Row | SMILES | Kd (Hsp70) [nM] | Effect on the cytotoxic activity of CD4+-T lymphocytes [1] | Inhibitory effect on TNF cytotoxic activity at 100 nM [2] | Kd (sTNFR1) [nM]
1 | CC(C)[C@H](NC(=O)[C@H](CC(=O)O)NC(=O)[C@H](CCCNC(=N)N)NC(=O)[C@@H](N)Cc1c[nH]cn1)C(=O)N[C@@H](CCC(N)=O)C(=O)N[C@@H](CCCNC(=N)N)C(=O)N[C@H](C(=O)O)[C@@H](C)O [17.1A, HRDVQRT] (H-HRDVQRT-OH) | 222 ± 15 | no effect on cell death | – | –
2 | CC(C)C[C@H](NC(=O)[C@@H](NC(=O)[C@H](Cc1ccc(O)cc1)NC(=O)[C@H](CC(N)=O)NC(=O)[C@H](CO)NC(=O)[C@@H](N)CCCNC(=N)N)C(C)C)C(=O)N[C@@H](CCCCN)C(=O)NCC(=O)O [17.1B, RSNYVLKG] (H-RSNYVLKG-OH) | 3.15 ± 0.7 | completely block the cytotoxic effect of lymphocytes | weak inhibitory effect | 6690 ± 120
